# Values joined by “and” are separate entries in the source; they are usually repeats but may differ in a detail not shown here. Equal entries are not always repeated. Where two headings read alike, the source gives them in different places. Marks after values point to notes of the source that are not given here.
# Assays:
# [1] = tested on: adjuvant-induced arthritis; experiment: Adjuvant-induced arthritis model, colestyramine 4 hours after compound 1 (Example 3); format: in vivo; conditions: for Increase in body weight / Reduction in arthritis score / Reduction in paw swelling / Surviving animals: orally
# Protocol: Example 3 illustrates an experiment to determine whether the action of the minimally effective dose of compound 1 is reduced by administration of colestyramine at a time interval of 4 hours. This was investigated in the adjuvant-induced arthritis model. The model was carried out according to Example 1. Compound 1 was administered orally in 1% CMC daily from the start to the end of the investigation in a dose of 2.5 mg/kg/day. Colestyramine was likewise administered orally in 1% CMC 4 hours after the administration of compound 1. The corresponding control groups received equal volumes of a 1% CMC at the corresponding times.
# In Example 3, we investigated whether relatively constant blood levels existing over a fairly long time were responsible for the desired effects of compound 1 on the immune system, or whether blood levels occurring for a short time (peak blood levels) of compound 1 caused this effect.
# For this, compound 1 was administered orally once daily at the lowest efficacious dose of 2.5 mg/kg/day (see Example 1). In the corresponding comparison groups, colestyramine was administered 4 hours after administration of compound 1 in order to lower the blood levels of compound 1 in an accelerated manner after the absorption phase had taken place. By means of this, the action of blood levels of compound 1 existing for different lengths of time on the immunologically related pathological processes in adjuvant-induced arthritis in the rat was investigated.
# [2] = Tolerability of constant (mini-infusion pump) versus pulse-like (oral) blood levels (Example 5); format: in vivo, rat; conditions: male, Lewis, rat, plasma, subcutaneous, read-out: Compound 1 blood plasma level (day 27)
# Protocol: (§1) In order to attain constant blood levels, a mini-infusion pump was subcutaneously implanted into experimental animals. The mini-infusion pumps contained 2 ml of a 15% strength ethanolic solution of compound 1, which was continuously released over 28 days. Doses of 2.5, 5, 10 and 25 mg/kg/day were employed. For comparison, animals which received the same daily doses of the compound 1, but administered orally, were implanted with mini-infusion pumps; these, however, were filled with only the vehicle (15% ethanol in water). A 1% strength CMC was additionally administered orally to animals which received the compound 1 via mini-infusion pumps. The survival of the animals was taken as a course parameter. Additionally, blood was taken on day 5 and day 27 in order to determine the blood levels of compound 1. Blood was taken from animals 4 hours after oral administration of compound 1. The group was comprised of 6 male Lewis rats having a body weight of approximately 210 g. Corresponding to the preceding experiments, adjuvant arthritis was induced in the animals on day 5.
# (§2) For the attainment of constant blood levels of compound 1, the animals were implanted subcutaneously with a mini-infusion pump which supplied compound 1 to the animals continuously for 28 days. By means of this pump, constant blood levels of compound 1 were attained. Thus long half-lives of compound 1, such as are observed in humans, were simulated.
# (§3) For the comparison group, animals were treated with the identical daily dose of compound 1, but received the substance orally rather than by mini-infusion pump.
# (§4) In this experiment, the tolerability of the compound 1 with a short half-life (compound 1 orally administered) was compared with the tolerability of the compound 1 with a long half-life (compound 1 by pump with a constant infinite half-life). The doses employed were 2.5 mg/kg/day, 5 mg/kg/day, 10 mg/kg/day and 25 mg/kg/day. The number of animals surviving the treatment was used as a measure of the tolerability. The tolerability was moreover compared with respect to the observed blood levels.
# Lewis rats = experiment: as above; format: in vivo, rat
# Protocol: as §1, §2, §3, §4
# pemphigus vulgaris = experiment: Observation of leflunomide treatment in humans; format: in vivo; conditions: rheumatoid arthritis patients treated with leflunomide
# Protocol: This diarrhea adversely affected the quality of life of the patient. Because of the problems caused by this side effect, an attempt was made, after more than two years' therapy with a constant dose of 20 mg of leflunomide per day, to end the therapy.
# This observation was surprising, as the active metabolite of leflunomide, compound 1, has a half-life of approximately 14 days in humans. Furthermore, in this patient the blood levels of the active metabolite of leflunomide were repeatedly determined in the relatively high range between 70 mg/l and 85 mg/l.
# [3] = Half-life in the blood plasma of humans; format: in vivo; conditions: human
# Protocol: The measurement is determined by calculating the half-life of a nucleotide synthesis inhibitor in the blood of a mammal, which is relevant for pharmacokinetic ratios in humans, or in humans in phase I clinical trial development, and comparing it with that of a known nucleotide synthesis inhibitor. The term “half-life” is understood as meaning the time in which the concentration of the nucleotide synthesis inhibitor in the blood plasma is halved. This invention for finding nucleotide synthesis inhibitors which have lower side effects therefore includes
# [4] = 2.5 mg/kg/day of compound 1 alone
# [5] = 2.5 mg/kg/day of compound 1 and 1000 mg/kg/day of cholestyramine 4 hours later
smiles,measurement,setting,value
"C/C(O)=C(\C#N)C(=O)Nc1ccc(C(F)(F)F)cc1 [compound 1, N-(4-trifluoromethylphenyl)-2-cyano-3-hydroxycrotonamide]",desired action on adjuvant-induced arthritis with versus without colestyramine 4 hours after compound 1,[1]; 2.5 mg/kg/day of compound 1,No difference was seen
same,Increase in body weight,[1]; [4],20%
same,Reduction in arthritis score,[1]; [4],70%
same,Reduction in paw swelling,[1]; [4],78%
same,Surviving animals,[1]; [4],100%
same,Increase in body weight,[1]; [5],20%
same,Reduction in arthritis score,[1]; [5],81%
same,Reduction in paw swelling,[1]; [5],86%
same,Surviving animals,[1]; [5],100%
same,concentration at 27 day,[2]; 2.5 mg/kg/day mini-infusion,2340 ng/mL
same,concentration at 27 day,[2]; 5 mg/kg/day mini-infusion,4180 ng/mL
same,concentration at 27 day,[2]; 10 mg/kg/day mini-infusion,6720 ng/mL
same,Body weight increase,Lewis rats; 2.5 mg/kg/day mini-infusion,+22%
same,Compound 1 blood plasma level (day 5),Lewis rats; 2.5 mg/kg/day mini-infusion,2.05 μg/ml ±
same,Compound 1 blood plasma level (day 27),Lewis rats; 2.5 mg/kg/day mini-infusion,2.34 μg/ml ±
same,Surviving animals,Lewis rats; 2.5 mg/kg/day mini-infusion,100%
same,Body weight increase,Lewis rats; 2.5 mg/kg/day p.o.,+29%
same,Surviving animals,Lewis rats; 2.5 mg/kg/day p.o.,100%
same,Body weight increase,Lewis rats; 5 mg/kg/day mini-infusion,+26%
same,Compound 1 blood plasma level (day 5),Lewis rats; 5 mg/kg/day mini-infusion,3.57 μg/ml ±
same,Compound 1 blood plasma level (day 27),Lewis rats; 5 mg/kg/day mini-infusion,4.18 μg/ml ±
same,Surviving animals,Lewis rats; 5 mg/kg/day mini-infusion,100%
same,Body weight increase,Lewis rats; 5 mg/kg/day p.o.,+25%
same,Surviving animals,Lewis rats; 5 mg/kg/day p.o.,100%
same,Compound 1 blood plasma level (day 5),"Lewis rats; 5 mg/kg/day p.o., 4 hours after oral administration",14.31 µg/µg/mL
same,Body weight increase,Lewis rats; 10 mg/kg/day mini-infusion,+29%
same,Compound 1 blood plasma level (day 5),Lewis rats; 10 mg/kg/day mini-infusion,4.55 μg/ml ±
same,Compound 1 blood plasma level (day 27),Lewis rats; 10 mg/kg/day mini-infusion,6.72 μg/ml ±
same,Surviving animals,Lewis rats; 10 mg/kg/day mini-infusion,100%
same,Body weight increase,Lewis rats; 10 mg/kg/day p.o.,+27%
same,Surviving animals,Lewis rats; 10 mg/kg/day p.o.,100%
same,Compound 1 blood plasma level (day 27),"Lewis rats; 10 mg/kg/day p.o., 4 hours after oral administration",34.35 μg/ml and 34.35 μg/ μg/ml
same,Surviving animals,Lewis rats; 25 mg/kg/day mini-infusion,17%
same,"blood plasma levels, extrapolated from the values at lower doses",Lewis rats; 25 mg/kg/day mini-infusion pump,≤ 15000 ng/mL
same,Body weight increase,"Lewis rats; 25 mg/kg/day mini-infusion, determined in one surviving animal only",+13%*
same,survival,Lewis rats; 25 mg/kg/day orally administered,all animals
same,Body weight increase,Lewis rats; 25 mg/kg/day p.o.,−2%
same,Surviving animals,Lewis rats; 25 mg/kg/day p.o.,100%
same,blood levels of the compound 1,pemphigus vulgaris,over 32 mg/l
same,half-life,[3],≤ 14.6 days
same,half-life,[3]; approximately,~14 days
